The results in this text go back to patent US8735414B2 (priority 2009, dated 2014).

Where only a bound is given, the exact number is not on record here.

The test relates to bicistronic HCV replicon (replicon RNA, GenBank Accession No. AJ242654). The test is described as follows: HCV Replicon Assay. Format: cell-based. The note with it: Hepatitis C virus, 72 h, read-out: Replicon IC50. (In general: Replicon systems follow genome replication, usually without infectious particles.)

Consider `CC(C)NS(=O)(=O)c1ccc(-c2c(C#N)c3ccc(OC(F)(F)F)cc3n2C2CCCC2)nc1` [compound 17, 6-[3-cyano-1-cyclopentyl-6-(trifluoromethoxy)-1H-indol-2-yl]-N-(propan-2-yl)pyridine-3-sulfonamide], for which the 50% inhibitory concentration (IC50) (commonly the concentration that gives 50% inhibition) was in the range of 0.5 to 2 µM.

In the case of `CC(C)NS(=O)(=O)c1ccc(-c2c(C#N)c3ccc(OC(F)(F)F)cc3n2C2CCC2)cn1` [compound 26, 5-[3-cyano-1-cyclobutyl-6-(trifluoromethoxy)-1H-indol-2-yl]-N-(propan-2-yl)pyridine-2-sulfonamide], the IC50 was in the range of 0.5 to 2 µM.

For the compound `CC(C)NS(=O)(=O)c1ccc(-c2c(C#N)c3ccc(C4CC4)cc3n2C2CCC2)cn1` [compound 27, 5-(3-cyano-1-cyclobutyl-6-cyclopropyl-1H-indol-2-yl)-N-(propan-2-yl)pyridine-2-sulfonamide], the IC50 was less than 0.5 µM.

As to `CC(C)NS(=O)(=O)c1ccc(-c2c(C#N)c3cc(Cl)ccc3n2C2CCC2)cn1` [compound 28, 5-(5-chloro-3-cyano-1-cyclobutyl-1H-indol-2-yl)-N-(propan-2-yl)pyridine-2-sulfonamide], the IC50 was 2 to 5 µM.

Consider `N#Cc1c(-c2ccc(S(=O)(=O)NC(CF)CF)cn2)n(C2CCCC2)c2ccc(Cl)cc12` [compound 72, 6-(5-chloro-3-cyano-1-cyclopentyl-1H-indol-2-yl)-N-(1,3-difluoropropan-2-yl)pyridine-3-sulfonamide], for which the 50% inhibitory concentration (IC50) is less than 0.5 µM.

For `N#Cc1c(-c2ccc(S(=O)(=O)NC(CF)CF)cn2)n(CC2CC2)c2ccc(Cl)cc12` [compound 73, 6-[5-chloro-3-cyano-1-(cyclopropylmethyl)-1H-indol-2-yl]-N-(1,3-difluoropropan-2-yl)pyridine-3-sulfonamide], the IC50 is less than 0.5 µM.

With `N#Cc1c(-c2ccc(S(=O)(=O)NC(CF)CF)cn2)n(C2CCCCC2)c2ccc(Cl)cc12` [compound 79, 6-(5-chloro-3-cyano-1-cyclohexyl-1H-indol-2-yl)-N-(1,3-difluoropropan-2-yl)pyridine-3-sulfonamide], the IC50 is less than 0.5 µM.

For the compound `Cc1ccc2c(C#N)c(-c3ccc(S(=O)(=O)NC(CF)CF)cn3)n(C3CCC3)c2c1` [compound 82, 6-(3-cyano-1-cyclobutyl-6-methyl-1H-indol-2-yl)-N-(1,3-difluoropropan-2-yl)pyridine-3-sulfonamide], the IC50 is less than 0.5 µM.

For the compound `N#Cc1c(-c2ccc(S(=O)(=O)NC(CF)CF)cn2)n(CC2CC2)c2cc(C3CC3)ccc12` [compound 84, 6-[3-cyano-6-cyclopropyl-1-(cyclopropylmethyl)-1H-indol-2-yl]-N-(1,3-difluoropropan-2-yl)pyridine-3-sulfonamide], the IC50 is less than 0.5 µM.

Regarding `N#Cc1c(-c2ccc(S(=O)(=O)NC(CF)CF)cn2)n(C2CCCC2)c2c(Cl)cccc12` [compound 88, 6-(7-chloro-3-cyano-1-cyclopentyl-1H-indol-2-yl)-N-(1,3-difluoropropan-2-yl)pyridine-3-sulfonamide], the IC50 is less than 0.5 µM.

For `N#Cc1c(-c2ccc(S(N)(=O)=O)cn2)n(C2CCC2)c2cc(C3CC3)ccc12` [compound 90, 6-(3-cyano-1-cyclobutyl-6-cyclopropyl-1H-indol-2-yl)pyridine-3-sulfonamide], the IC50 is 2 to 5 µM.

For the compound `N#Cc1c(-c2ccc(S(=O)(=O)NC(CF)CF)cn2)n(C2CCC2)c2cc(C=C(F)F)ccc12` [compound 103, 6-[3-cyano-1-cyclobutyl-6-(2,2-difluoroethenyl)-1H-indol-2-yl]-N-(1,3-difluoropropan-2-yl)pyridine-3-sulfonamide], the IC50 was less than 0.5 µM.

Regarding `CC(C)NS(=O)(=O)c1ccc(-c2c(C#N)c3ccc(C4CC4)cc3n2C2CC2)nc1` [compound 109, 6-(3-cyano-1,6-dicyclopropyl-1H-indol-2-yl)-N-(propan-2-yl)pyridine-3-sulfonamide], the IC50 is less than 0.5 µM.

With `C[C@H](NS(=O)(=O)c1ccc(-c2c(C#N)c3cc(Cl)ccc3n2C2CCCC2)nc1)C1CC1` [compound 118, 6-(5-chloro-3-cyano-1-cyclopentyl-1H-indol-2-yl)-N-[(1S)-1-cyclopropylethyl]pyridine-3-sulfonamide], the IC50 was less than 0.5 µM.

As for `N#Cc1c(-c2ncc(S(=O)(=O)NC(CF)CF)cn2)n(C2CCC2)c2cc(C3CC3)c(F)cc12` [compound 145, 2-(3-cyano-1-cyclobutyl-6-cyclopropyl-5-fluoro-1H-indol-2-yl)-N-(1,3-difluoropropan-2-yl)pyrimidine-5-sulfonamide], the IC50 was less than 0.5 µM.

Regarding `C[C@H](NS(=O)(=O)c1ccc(-c2c(C#N)c3ccc(OC(F)(F)F)cc3n2C2CCC2)nc1)C1CC1` [compound 152, 6-[3-cyano-1-cyclobutyl-6-(trifluoromethoxy)-1H-indol-2-yl]-N-[(1S)-1-cyclopropylethyl]pyridine-3-sulfonamide], the IC50 is less than 0.5 µM.

For the compound `C[C@H](NS(=O)(=O)c1ccc(-c2c(C#N)c3ccc(Cl)cc3n2C2CCC2)nc1)C1CC1` [compound 154, 6-(6-chloro-3-cyano-1-cyclobutyl-1H-indol-2-yl)-N-[(1S)-1-cyclopropylethyl]pyridine-3-sulfonamide], the IC50 was less than 0.5 µM.

Take `C[C@H](NS(=O)(=O)c1ccc(-c2c(C#N)c3ccc(Cl)cc3n2C2CCCC2)nc1)C1CC1` [compound 155, 6-(6-chloro-3-cyano-1-cyclopentyl-1H-indol-2-yl)-N-[(1S)-1-cyclopropylethyl]pyridine-3-sulfonamide]: the IC50 was less than 0.5 µM.

As for `CC(C)NS(=O)(=O)c1cnc(-c2c(C#N)c3ccc(Cl)cc3n2C(C)C)nc1` [compound 156, 2-[6-chloro-3-cyano-1-(propan-2-yl)-1H-indol-2-yl]-N-(propan-2-yl)pyrimidine-5-sulfonamide], the IC50 was 0.5 to 2 µM.

As to `CSc1ccc2c(C#N)c(-c3ccc(S(=O)(=O)NC(CF)CF)cn3)n(C3CCC3)c2c1` [compound 161, 6-[3-cyano-1-cyclobutyl-6-(methylsulfanyl)-1H-indol-2-yl]-N-(1,3-difluoropropan-2-yl)pyridine-3-sulfonamide], the IC50 is less than 0.5 µM.

`CC(C)n1c(-c2ncc(S(=O)(=O)NC(CF)CF)cn2)c(C#N)c2cc(Cl)ccc21` [compound 187, 2-[5-chloro-3-cyano-1-(propan-2-yl)-1H-indol-2-yl]-N-(1,3-difluoropropan-2-yl)pyrimidine-5-sulfonamide]: the IC50 was less than 0.5 µM.

In the case of `N#Cc1c(-c2ncc(S(=O)(=O)NC(CF)CF)cn2)n(C2CCCC2)c2ccc(Cl)cc12` [compound 188, 2-(5-chloro-3-cyano-1-cyclopentyl-1H-indol-2-yl)-N-(1,3-difluoropropan-2-yl)pyrimidine-5-sulfonamide], the IC50 was less than 0.5 µM.

With `CC(C)NS(=O)(=O)c1cnc(-c2c(C#N)c3ccc(Cl)cc3n2C2CCCC2)nc1` [compound 189, 2-(6-chloro-3-cyano-1-cyclopentyl-1H-indol-2-yl)-N-(propan-2-yl)pyrimidine-5-sulfonamide], the IC50 was less than 0.5 µM.

In the case of `Cc1ccc2c(C#N)c(-c3ncc(S(=O)(=O)N[C@@H](C)C4CC4)cn3)n(C3CCC3)c2c1` [compound 202, 2-(3-cyano-1-cyclobutyl-6-methyl-1H-indol-2-yl)-N-[(1S)-1-cyclopropylethyl]pyrimidine-5-sulfonamide], the IC50 was less than 0.5 µM.

With `C[C@@H](NS(=O)(=O)c1ccc(-c2c(C#N)c3ccc(Cl)cc3n2C2CCCC2)nc1)C(F)(F)F` [compound 223, 6-(6-chloro-3-cyano-1-cyclopentyl-1H-indol-2-yl)-N-[(2R)-1,1,1-trifluoropropan-2-yl]pyridine-3-sulfonamide], the IC50 was less than 0.5 µM.

Take `C[C@@H](NS(=O)(=O)c1ccc(-c2c(C#N)c3cc(Cl)ccc3n2C2CCCC2)nc1)C(F)(F)F` [compound 224, 6-(5-chloro-3-cyano-1-cyclopentyl-1H-indol-2-yl)-N-[(2R)-1,1,1-trifluoropropan-2-yl]pyridine-3-sulfonamide]: the IC50 was less than 0.5 µM.

For the compound `Cc1ccc2c(C#N)c(-c3ccc(S(=O)(=O)N[C@@H](C)C4CC4)cn3)n(CC3CC3)c2c1` [compound 237, 6-[3-cyano-1-(cyclopropylmethyl)-6-methyl-1H-indol-2-yl]-N-[(1S)-1-cyclopropylethyl]pyridine-3-sulfonamide], the IC50 was less than 0.5 µM.

In the case of `N#Cc1c(-c2ccc(S(=O)(=O)NC3CC(F)(F)C3)cn2)n(C2CCC2)c2ccc(Cl)cc12` [compound 243, 6-(5-chloro-3-cyano-1-cyclobutyl-1H-indol-2-yl)-N-(3,3-difluorocyclobutyl)pyridine-3-sulfonamide], the IC50 fell in the range of 0.5 to 2 µM.

Turning to `COc1ccc2c(C#N)c(-c3ccc(S(=O)(=O)NC4CC(F)(F)C4)cn3)n(C3CCCC3)c2c1` [compound 246, 6-(3-cyano-1-cyclopentyl-6-methoxy-1H-indol-2-yl)-N-(3,3-difluorocyclobutyl)pyridine-3-sulfonamide], the IC50 is 0.5 to 2 µM.

As to `C[C@@H](NS(=O)(=O)c1ccc(-c2c(C#N)c3ccc(F)cc3n2C2CCCCC2)nc1)C(F)(F)F` [compound 252, 6-(3-cyano-1-cyclohexyl-6-fluoro-1H-indol-2-yl)-N-[(2R)-1,1,1-trifluoropropan-2-yl]pyridine-3-sulfonamide], the half-inhibitory concentration (IC50) is less than 0.5 µM.

Take `CC(C)n1c(-c2ncc(S(=O)(=O)NC(CF)CF)cn2)c(C#N)c2ccc(Cl)cc21` [compound 257, 2-[6-chloro-3-cyano-1-(propan-2-yl)-1H-indol-2-yl]-N-(1,3-difluoropropan-2-yl)pyrimidine-5-sulfonamide]: the IC50 lay in the range of 0.5 to 2 µM.

As for `CCS(=O)(=O)Nc1ccc(-c2c(C#N)c3ccc(OCC(F)(F)F)cc3n2CC2CC2)cn1` [compound 290, N-{5-[3-cyano-1-(cyclopropylmethyl)-6-(2,2,2-trifluoroethoxy)-1H-indol-2-yl]pyridin-2-yl}ethanesulfonamide], the IC50 was in the range of 2 to 5 µM.

For `CC(C)S(=O)(=O)Nc1ccc(-c2c(C#N)c3ccc(OCC(F)(F)F)cc3n2CC2CC2)cn1` [compound 291, N-{5-[3-cyano-1-(cyclopropylmethyl)-6-(2,2,2-trifluoroethoxy)-1H-indol-2-yl]pyridin-2-yl}propane-2-sulfonamide], the IC50 lay within 0.5 to 2 µM.
